# Experimental data reported in ChEMBL document CHEMBL1144985, “Rational design, synthesis and structure-activity relationships of a cyclic succinate series of TNF-alpha converting enzyme inhibitors. Part 2: lead optimization” (Bioorg Med Chem Lett, 2003).
# Target: Matrix metalloproteinase-9 (Homo sapiens, UniProt P14780)
# Assay: Inhibitory activity against matrix metalloprotease-9 (MMP-9)
# Settings: not given
# Sequence of Matrix metalloproteinase-9 (P14780 whole entry): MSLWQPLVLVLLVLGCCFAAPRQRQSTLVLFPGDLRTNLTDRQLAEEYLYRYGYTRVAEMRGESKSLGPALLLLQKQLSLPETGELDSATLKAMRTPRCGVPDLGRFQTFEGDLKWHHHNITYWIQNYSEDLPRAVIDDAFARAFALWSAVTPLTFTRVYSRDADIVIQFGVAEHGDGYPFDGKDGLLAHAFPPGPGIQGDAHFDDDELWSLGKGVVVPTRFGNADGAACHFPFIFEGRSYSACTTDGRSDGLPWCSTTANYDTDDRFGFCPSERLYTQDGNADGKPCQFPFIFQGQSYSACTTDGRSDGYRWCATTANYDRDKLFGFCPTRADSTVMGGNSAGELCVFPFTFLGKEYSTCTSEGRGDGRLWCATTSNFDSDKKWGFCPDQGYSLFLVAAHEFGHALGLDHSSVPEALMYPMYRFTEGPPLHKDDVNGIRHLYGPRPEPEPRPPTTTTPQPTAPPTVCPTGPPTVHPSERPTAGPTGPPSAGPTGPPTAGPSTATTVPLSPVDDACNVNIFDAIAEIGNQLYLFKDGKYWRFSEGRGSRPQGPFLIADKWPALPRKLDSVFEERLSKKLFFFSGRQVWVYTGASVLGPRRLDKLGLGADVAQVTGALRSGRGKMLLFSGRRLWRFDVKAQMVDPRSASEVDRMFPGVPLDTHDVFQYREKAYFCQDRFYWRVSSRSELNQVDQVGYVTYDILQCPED
row,Ki [nM],SMILES
1,> 2130,O=C(NO)[C@H]1CCCC[C@@H]1C(=O)Nc1ccc(COc2ccnc3ccccc23)cc1
2,> 2130,Cc1cc(COc2ccc(NC(=O)[C@H]3CN(C)CC[C@@H]3C(=O)NO)cc2)c2ccccc2n1
3,767,COC(=O)N1CC[C@H](C(=O)Nc2ccc(OCc3cc(C)nc4ccccc34)cc2)[C@@H](C(=O)NO)C1
4,> 2130,CCCC(=O)N1CC[C@H](C(=O)Nc2ccc(OCc3cc(C)nc4ccccc34)cc2)[C@@H](C(=O)NO)C1

# The next lines start with the molecule.
row,SMILES,Ki [nM]
1,Cc1cc(COc2ccc(NC(=O)[C@H]3CCN(S(C)(=O)=O)C[C@@H]3C(=O)NO)cc2)c2ccccc2n1,306
2,Cc1cc(COc2ccc(NC(=O)[C@H]3CN(Cc4nccs4)CC[C@@H]3C(=O)NO)cc2)c2ccccc2n1,> 2130
3,Cc1cc(OCc2ccc(NC(=O)[C@H]3CCN(C(=O)c4ccco4)C[C@@H]3C(=O)NO)cc2)c2ccccc2n1,> 2130
4,Cc1cc(COc2ccc(NC(=O)[C@H]3CN(C(=O)c4ccco4)CC[C@@H]3C(=O)NO)cc2)c2ccccc2n1,> 2130

# Test system: not listed separately
# Assay: Solubility was determined
# Settings: not given
row,SMILES,solubility [µg/mL]
1,Cc1cc(COc2ccc(NC(=O)[C@H]3CN(C(=O)c4ccco4)CC[C@@H]3C(=O)NO)cc2)c2ccccc2n1,< 100

# Target: T1, Interstitial collagenase (Homo sapiens, UniProt P03956)
# T1 sequence (P03956 whole entry): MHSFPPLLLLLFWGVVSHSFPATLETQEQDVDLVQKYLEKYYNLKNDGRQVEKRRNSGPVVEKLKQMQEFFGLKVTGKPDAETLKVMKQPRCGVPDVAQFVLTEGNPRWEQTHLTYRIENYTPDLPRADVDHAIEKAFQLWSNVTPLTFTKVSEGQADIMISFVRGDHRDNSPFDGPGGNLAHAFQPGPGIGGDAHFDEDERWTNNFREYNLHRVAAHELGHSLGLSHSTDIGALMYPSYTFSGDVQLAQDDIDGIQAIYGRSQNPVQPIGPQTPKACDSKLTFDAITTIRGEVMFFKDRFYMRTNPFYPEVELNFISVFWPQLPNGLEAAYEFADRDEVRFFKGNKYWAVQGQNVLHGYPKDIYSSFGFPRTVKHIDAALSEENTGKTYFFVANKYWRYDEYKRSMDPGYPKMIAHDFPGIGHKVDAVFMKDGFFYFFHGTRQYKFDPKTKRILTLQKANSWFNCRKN
# Assay: Inhibitory activity against matrix metalloprotease-1 (MMP-1)
# Settings: not given
row,Ki [µM],SMILES
1,> 4.95,O=C(NO)[C@H]1CCCC[C@@H]1C(=O)Nc1ccc(COc2ccnc3ccccc23)cc1
2,> 4.95,Cc1cc(COc2ccc(NC(=O)[C@H]3CN(C)CC[C@@H]3C(=O)NO)cc2)c2ccccc2n1
3,> 4.95,COC(=O)N1CC[C@H](C(=O)Nc2ccc(OCc3cc(C)nc4ccccc34)cc2)[C@@H](C(=O)NO)C1
4,> 4.95,CCCC(=O)N1CC[C@H](C(=O)Nc2ccc(OCc3cc(C)nc4ccccc34)cc2)[C@@H](C(=O)NO)C1

# Second part, the molecule before the results:
row,SMILES,Ki [µM]
1,Cc1cc(COc2ccc(NC(=O)[C@H]3CCN(S(C)(=O)=O)C[C@@H]3C(=O)NO)cc2)c2ccccc2n1,> 4.95
2,Cc1cc(COc2ccc(NC(=O)[C@H]3CN(Cc4nccs4)CC[C@@H]3C(=O)NO)cc2)c2ccccc2n1,> 4.95
3,Cc1cc(OCc2ccc(NC(=O)[C@H]3CCN(C(=O)c4ccco4)C[C@@H]3C(=O)NO)cc2)c2ccccc2n1,> 4.95
4,Cc1cc(COc2ccc(NC(=O)[C@H]3CN(C(=O)c4ccco4)CC[C@@H]3C(=O)NO)cc2)c2ccccc2n1,> 4.95

# Target: 72 kDa type IV collagenase (Homo sapiens, UniProt P08253)
# Sequence (P08253 whole entry): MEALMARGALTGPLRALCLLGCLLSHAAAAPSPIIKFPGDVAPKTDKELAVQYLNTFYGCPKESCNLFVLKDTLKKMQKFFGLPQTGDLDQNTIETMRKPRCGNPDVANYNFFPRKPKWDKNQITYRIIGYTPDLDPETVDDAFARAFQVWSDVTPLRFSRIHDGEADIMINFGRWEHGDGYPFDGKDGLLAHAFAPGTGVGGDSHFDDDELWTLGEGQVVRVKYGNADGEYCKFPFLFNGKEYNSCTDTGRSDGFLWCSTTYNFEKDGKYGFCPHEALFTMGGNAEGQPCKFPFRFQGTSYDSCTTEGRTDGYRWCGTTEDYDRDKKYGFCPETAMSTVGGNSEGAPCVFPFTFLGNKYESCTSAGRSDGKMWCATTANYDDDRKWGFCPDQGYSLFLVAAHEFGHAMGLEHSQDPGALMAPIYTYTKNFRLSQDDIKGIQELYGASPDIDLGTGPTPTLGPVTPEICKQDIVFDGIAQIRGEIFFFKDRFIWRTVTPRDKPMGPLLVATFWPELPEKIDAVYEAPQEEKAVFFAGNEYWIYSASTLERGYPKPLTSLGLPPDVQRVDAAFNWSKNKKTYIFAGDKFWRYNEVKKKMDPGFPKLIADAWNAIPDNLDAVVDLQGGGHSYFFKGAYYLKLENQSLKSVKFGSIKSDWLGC
# Assay: Inhibitory activity against matrix metalloprotease-2 (MMP-2)
# Settings: not given
row,Ki [µM],SMILES
1,> 3.33,O=C(NO)[C@H]1CCCC[C@@H]1C(=O)Nc1ccc(COc2ccnc3ccccc23)cc1
2,> 3.33,Cc1cc(COc2ccc(NC(=O)[C@H]3CN(C)CC[C@@H]3C(=O)NO)cc2)c2ccccc2n1
3,1.11,COC(=O)N1CC[C@H](C(=O)Nc2ccc(OCc3cc(C)nc4ccccc34)cc2)[C@@H](C(=O)NO)C1
4,> 3.33,CCCC(=O)N1CC[C@H](C(=O)Nc2ccc(OCc3cc(C)nc4ccccc34)cc2)[C@@H](C(=O)NO)C1

# More lines, now with the values behind:
row,SMILES,Ki [µM]
1,Cc1cc(COc2ccc(NC(=O)[C@H]3CCN(S(C)(=O)=O)C[C@@H]3C(=O)NO)cc2)c2ccccc2n1,0.656
2,Cc1cc(COc2ccc(NC(=O)[C@H]3CN(Cc4nccs4)CC[C@@H]3C(=O)NO)cc2)c2ccccc2n1,> 3.33
3,Cc1cc(OCc2ccc(NC(=O)[C@H]3CCN(C(=O)c4ccco4)C[C@@H]3C(=O)NO)cc2)c2ccccc2n1,> 3.33
4,Cc1cc(COc2ccc(NC(=O)[C@H]3CN(C(=O)c4ccco4)CC[C@@H]3C(=O)NO)cc2)c2ccccc2n1,> 3.33

# Test system: Caco-2
# Settings: Homo sapiens
# Description: Caco-2 permeability was determined
row,SMILES,Papp
1,Cc1cc(COc2ccc(NC(=O)[C@H]3CN(C(=O)c4ccco4)CC[C@@H]3C(=O)NO)cc2)c2ccccc2n1,0.2 10e-6 cm s-1

# Organism: Homo sapiens
# Assay: In vitro inhibition of TNF-alpha production was determined by using LPS-stimulated human whole blood assay (WBA)
# Assay type: functional
# Settings: not given
row,IC50 [nM],SMILES
1,> 50000,O=C(NO)[C@H]1CCCC[C@@H]1C(=O)Nc1ccc(COc2ccnc3ccccc23)cc1
2,100,Cc1cc(COc2ccc(NC(=O)[C@H]3CN(C)CC[C@@H]3C(=O)NO)cc2)c2ccccc2n1
3,570,COC(=O)N1CC[C@H](C(=O)Nc2ccc(OCc3cc(C)nc4ccccc34)cc2)[C@@H](C(=O)NO)C1
4,330,CCCC(=O)N1CC[C@H](C(=O)Nc2ccc(OCc3cc(C)nc4ccccc34)cc2)[C@@H](C(=O)NO)C1

# The remaining lines, values behind:
row,SMILES,IC50 [nM]
1,Cc1cc(COc2ccc(NC(=O)[C@H]3CCN(S(C)(=O)=O)C[C@@H]3C(=O)NO)cc2)c2ccccc2n1,1360
2,Cc1cc(COc2ccc(NC(=O)[C@H]3CN(Cc4nccs4)CC[C@@H]3C(=O)NO)cc2)c2ccccc2n1,560
3,Cc1cc(OCc2ccc(NC(=O)[C@H]3CCN(C(=O)c4ccco4)C[C@@H]3C(=O)NO)cc2)c2ccccc2n1,3400
4,Cc1cc(COc2ccc(NC(=O)[C@H]3CN(C(=O)c4ccco4)CC[C@@H]3C(=O)NO)cc2)c2ccccc2n1,1300

# Target: Disintegrin and metalloproteinase domain-containing protein 17 (Sus scrofa, UniProt O77636)
# Sequence (O77636 whole entry, the tested form may be a part): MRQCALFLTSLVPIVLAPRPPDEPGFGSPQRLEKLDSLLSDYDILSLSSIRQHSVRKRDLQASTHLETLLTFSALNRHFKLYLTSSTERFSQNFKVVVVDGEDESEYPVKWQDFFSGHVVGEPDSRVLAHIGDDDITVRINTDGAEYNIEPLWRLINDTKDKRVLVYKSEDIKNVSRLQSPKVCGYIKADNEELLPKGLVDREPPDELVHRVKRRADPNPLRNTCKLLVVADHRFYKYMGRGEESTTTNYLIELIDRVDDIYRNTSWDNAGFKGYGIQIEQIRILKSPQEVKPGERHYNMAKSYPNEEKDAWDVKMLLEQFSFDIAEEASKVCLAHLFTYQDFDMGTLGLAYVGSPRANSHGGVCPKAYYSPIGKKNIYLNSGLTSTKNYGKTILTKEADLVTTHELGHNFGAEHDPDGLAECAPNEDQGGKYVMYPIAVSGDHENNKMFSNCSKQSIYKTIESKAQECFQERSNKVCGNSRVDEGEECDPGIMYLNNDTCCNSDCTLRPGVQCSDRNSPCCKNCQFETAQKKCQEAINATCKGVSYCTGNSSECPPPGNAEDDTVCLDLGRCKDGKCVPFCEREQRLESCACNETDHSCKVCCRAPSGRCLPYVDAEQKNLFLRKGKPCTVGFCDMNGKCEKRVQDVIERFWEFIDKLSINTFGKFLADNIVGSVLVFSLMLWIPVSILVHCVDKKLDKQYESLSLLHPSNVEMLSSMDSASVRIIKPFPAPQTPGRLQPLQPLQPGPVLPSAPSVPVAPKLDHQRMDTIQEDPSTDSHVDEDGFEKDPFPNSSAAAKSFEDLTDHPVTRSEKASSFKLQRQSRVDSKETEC
# Assay: In vitro binding affinity against porcine TACE
# Settings: not given
row,IC50 [nM],SMILES
1,5,Cc1cc(COc2ccc(NC(=O)[C@H]3CN(C)CC[C@@H]3C(=O)NO)cc2)c2ccccc2n1
2,0.28,COC(=O)N1CC[C@H](C(=O)Nc2ccc(OCc3cc(C)nc4ccccc34)cc2)[C@@H](C(=O)NO)C1
3,0.26,CCCC(=O)N1CC[C@H](C(=O)Nc2ccc(OCc3cc(C)nc4ccccc34)cc2)[C@@H](C(=O)NO)C1

# Further lines, the molecule ahead of its results:
row,SMILES,IC50 [nM]
1,Cc1cc(COc2ccc(NC(=O)[C@H]3CCN(S(C)(=O)=O)C[C@@H]3C(=O)NO)cc2)c2ccccc2n1,0.48
2,Cc1cc(COc2ccc(NC(=O)[C@H]3CN(Cc4nccs4)CC[C@@H]3C(=O)NO)cc2)c2ccccc2n1,0.8
3,Cc1cc(OCc2ccc(NC(=O)[C@H]3CCN(C(=O)c4ccco4)C[C@@H]3C(=O)NO)cc2)c2ccccc2n1,3
4,Cc1cc(COc2ccc(NC(=O)[C@H]3CN(C(=O)c4ccco4)CC[C@@H]3C(=O)NO)cc2)c2ccccc2n1,< 0.3
